# Data: article PMC11124822, “Discovery and Anticancer Screening of Novel Oxindole-Based Derivative Bearing Pyridyl Group as Potent and Selective Dual FLT3/CDK2 Kinase Inhibitor” (Pharmaceuticals, 2024)
# Tested on: MOLT-4
# Assay: NCI-60 antiproliferative screen (SRB)
# Format: cell-based
# Settings: Homo sapiens; 10 µM single dose, 48 h; MOLT-4 (Leukemia); read-out: Growth inhibition (%)
row,SMILES,inhibition at 10 µM [%]
1,"O=C1Nc2ccccc2C1=Cc1ccc(OCc2cccnc2)cc1 (mixture of isomers) [Compound 5i, (E/Z)-3-[4-(Pyridin-3-ylmethoxy)benzylidene]indolin-2-one]",70

# Tested on: RPMI-8226
# Assay: NCI-60 antiproliferative screen (SRB)
# Format: cell-based, human
# Settings: Homo sapiens; 10 µM single dose, 48 h; RPMI-8226 (Leukemia); read-out: Growth inhibition (%)
row,SMILES,inhibition at 10 µM [%]
1,"O=C1Nc2ccccc2C1=Cc1ccc(OCc2cccnc2)cc1 (mixture of isomers) [Compound 5i, (E/Z)-3-[4-(Pyridin-3-ylmethoxy)benzylidene]indolin-2-one]",45.4

# Tested on: HOP-62
# Assay: NCI-60 antiproliferative screen (SRB)
# Format: cell-based, human
# Settings: Homo sapiens; 10 µM single dose, 48 h; HOP-62 (NSCLC); read-out: Growth inhibition (%)
row,SMILES,inhibition at 10 µM [%]
1,"O=C1Nc2ccccc2C1=Cc1ccc(OCc2cccnc2)cc1 (mixture of isomers) [Compound 5i, (E/Z)-3-[4-(Pyridin-3-ylmethoxy)benzylidene]indolin-2-one]",37.2

# Tested on: HCC-2998
# Assay: NCI-60 antiproliferative screen (SRB)
# Format: cell-based, human
# Settings: Homo sapiens; 10 µM single dose, 48 h; HCC-2998 (Colon); read-out: Growth inhibition (%)
row,SMILES,inhibition at 10 µM [%]
1,"O=C1Nc2ccccc2C1=Cc1ccc(OCc2cccnc2)cc1 (mixture of isomers) [Compound 5i, (E/Z)-3-[4-(Pyridin-3-ylmethoxy)benzylidene]indolin-2-one]",-2.08

# Tested on: HCT-116
# Assay: NCI-60 antiproliferative screen (SRB)
# Format: cell-based, human
# Settings: Homo sapiens; 10 µM single dose, 48 h; HCT-116 (Colon); read-out: Growth inhibition (%)
row,SMILES,inhibition at 10 µM [%]
1,"O=C1Nc2ccccc2C1=Cc1ccc(OCc2cccnc2)cc1 (mixture of isomers) [Compound 5i, (E/Z)-3-[4-(Pyridin-3-ylmethoxy)benzylidene]indolin-2-one]",56.5

# Tested on: KM12
# Assay: NCI-60 antiproliferative screen (SRB)
# Format: cell-based, human
# Settings: Homo sapiens; 10 µM single dose, 48 h; KM12 (Colon); read-out: Growth inhibition (%)
row,SMILES,inhibition at 10 µM [%]
1,"O=C1Nc2ccccc2C1=Cc1ccc(OCc2cccnc2)cc1 (mixture of isomers) [Compound 5i, (E/Z)-3-[4-(Pyridin-3-ylmethoxy)benzylidene]indolin-2-one]",87.4

# Tested on: SW-620
# Assay: NCI-60 antiproliferative screen (SRB)
# Format: cell-based, human
# Settings: Homo sapiens; 10 µM single dose, 48 h; SW-620 (Colon); read-out: Growth inhibition (%)
row,SMILES,inhibition at 10 µM [%]
1,"O=C1Nc2ccccc2C1=Cc1ccc(OCc2cccnc2)cc1 (mixture of isomers) [Compound 5i, (E/Z)-3-[4-(Pyridin-3-ylmethoxy)benzylidene]indolin-2-one]",19.9

# Tested on: SF-295
# Assay: NCI-60 antiproliferative screen (SRB)
# Format: cell-based, human
# Settings: Homo sapiens; 10 µM single dose, 48 h; SF-295 (CNS); read-out: Growth inhibition (%)
row,SMILES,inhibition at 10 µM [%]
1,"O=C1Nc2ccccc2C1=Cc1ccc(OCc2cccnc2)cc1 (mixture of isomers) [Compound 5i, (E/Z)-3-[4-(Pyridin-3-ylmethoxy)benzylidene]indolin-2-one]",31.2

# Tested on: SF-539
# Assay: NCI-60 antiproliferative screen (SRB)
# Format: cell-based, human
# Settings: Homo sapiens; 10 µM single dose, 48 h; SF-539 (CNS); read-out: Growth inhibition (%)
row,SMILES,inhibition at 10 µM [%]
1,"O=C1Nc2ccccc2C1=Cc1ccc(OCc2cccnc2)cc1 (mixture of isomers) [Compound 5i, (E/Z)-3-[4-(Pyridin-3-ylmethoxy)benzylidene]indolin-2-one]",36.2

# Tested on: U251
# Assay: NCI-60 antiproliferative screen (SRB)
# Format: cell-based, human
# Settings: Homo sapiens, U-251; 10 µM single dose, 48 h; U251 (CNS); read-out: Growth inhibition (%)
row,SMILES,inhibition at 10 µM [%]
1,"O=C1Nc2ccccc2C1=Cc1ccc(OCc2cccnc2)cc1 (mixture of isomers) [Compound 5i, (E/Z)-3-[4-(Pyridin-3-ylmethoxy)benzylidene]indolin-2-one]",53.2

# Tested on: M14
# Assay: NCI-60 antiproliferative screen (SRB)
# Format: cell-based, human
# Settings: Homo sapiens; 10 µM single dose, 48 h; M14 (Melanoma); read-out: Growth inhibition (%)
row,SMILES,inhibition at 10 µM [%]
1,"O=C1Nc2ccccc2C1=Cc1ccc(OCc2cccnc2)cc1 (mixture of isomers) [Compound 5i, (E/Z)-3-[4-(Pyridin-3-ylmethoxy)benzylidene]indolin-2-one]",37.6

# Tested on: SK-MEL-2
# Assay: NCI-60 antiproliferative screen (SRB)
# Format: cell-based, human
# Settings: Homo sapiens; 10 µM single dose, 48 h; SK-MEL-2 (Melanoma); read-out: Growth inhibition (%)
row,SMILES,inhibition at 10 µM [%]
1,"O=C1Nc2ccccc2C1=Cc1ccc(OCc2cccnc2)cc1 (mixture of isomers) [Compound 5i, (E/Z)-3-[4-(Pyridin-3-ylmethoxy)benzylidene]indolin-2-one]",24.1

# Tested on: SK-MEL-28
# Assay: NCI-60 antiproliferative screen (SRB)
# Format: cell-based, human
# Settings: Homo sapiens; 10 µM single dose, 48 h; SK-MEL-28 (Melanoma); read-out: Growth inhibition (%)
row,SMILES,inhibition at 10 µM [%]
1,"O=C1Nc2ccccc2C1=Cc1ccc(OCc2cccnc2)cc1 (mixture of isomers) [Compound 5i, (E/Z)-3-[4-(Pyridin-3-ylmethoxy)benzylidene]indolin-2-one]",-2.65

# Tested on: UACC-257
# Assay: NCI-60 antiproliferative screen (SRB)
# Format: cell-based, human
# Settings: Homo sapiens; 10 µM single dose, 48 h; UACC-257 (Melanoma); read-out: Growth inhibition (%)
row,SMILES,inhibition at 10 µM [%]
1,"O=C1Nc2ccccc2C1=Cc1ccc(OCc2cccnc2)cc1 (mixture of isomers) [Compound 5i, (E/Z)-3-[4-(Pyridin-3-ylmethoxy)benzylidene]indolin-2-one]",30.5

# Tested on: OVCAR-3
# Assay: NCI-60 antiproliferative screen (SRB)
# Format: cell-based, human
# Settings: Homo sapiens; 10 µM single dose, 48 h; OVCAR-3 (Ovarian); read-out: Growth inhibition (%)
row,SMILES,inhibition at 10 µM [%]
1,"O=C1Nc2ccccc2C1=Cc1ccc(OCc2cccnc2)cc1 (mixture of isomers) [Compound 5i, (E/Z)-3-[4-(Pyridin-3-ylmethoxy)benzylidene]indolin-2-one]",-9.24

# Tested on: OVCAR-5
# Assay: NCI-60 antiproliferative screen (SRB)
# Format: cell-based, human
# Settings: Homo sapiens; 10 µM single dose, 48 h; OVCAR-5 (Ovarian); read-out: Growth inhibition (%)
row,SMILES,inhibition at 10 µM [%]
1,"O=C1Nc2ccccc2C1=Cc1ccc(OCc2cccnc2)cc1 (mixture of isomers) [Compound 5i, (E/Z)-3-[4-(Pyridin-3-ylmethoxy)benzylidene]indolin-2-one]",-27.6

# Tested on: OVCAR-8
# Assay: NCI-60 antiproliferative screen (SRB)
# Format: cell-based, human
# Settings: Homo sapiens; 10 µM single dose, 48 h; OVCAR-8 (Ovarian); read-out: Growth inhibition (%)
row,SMILES,inhibition at 10 µM [%]
1,"O=C1Nc2ccccc2C1=Cc1ccc(OCc2cccnc2)cc1 (mixture of isomers) [Compound 5i, (E/Z)-3-[4-(Pyridin-3-ylmethoxy)benzylidene]indolin-2-one]",47.2

# Tested on: NCI/ADR-RES
# Assay: NCI-60 antiproliferative screen (SRB)
# Format: cell-based, human
# Settings: Homo sapiens; 10 µM single dose, 48 h; NCI/ADR-RES (Ovarian); read-out: Growth inhibition (%)
row,SMILES,inhibition at 10 µM [%]
1,"O=C1Nc2ccccc2C1=Cc1ccc(OCc2cccnc2)cc1 (mixture of isomers) [Compound 5i, (E/Z)-3-[4-(Pyridin-3-ylmethoxy)benzylidene]indolin-2-one]",55

# Tested on: A498
# Assay: NCI-60 antiproliferative screen (SRB)
# Format: cell-based, human
# Settings: Homo sapiens; 10 µM single dose, 48 h; A498 (Renal); read-out: Growth inhibition (%)
row,SMILES,inhibition at 10 µM [%]
1,"O=C1Nc2ccccc2C1=Cc1ccc(OCc2cccnc2)cc1 (mixture of isomers) [Compound 5i, (E/Z)-3-[4-(Pyridin-3-ylmethoxy)benzylidene]indolin-2-one]",-17.8

# Tested on: CAKI-1
# Assay: NCI-60 antiproliferative screen (SRB)
# Format: cell-based, human
# Settings: Homo sapiens; 10 µM single dose, 48 h; CAKI-1 (Renal); read-out: Growth inhibition (%)
row,SMILES,inhibition at 10 µM [%]
1,"O=C1Nc2ccccc2C1=Cc1ccc(OCc2cccnc2)cc1 (mixture of isomers) [Compound 5i, (E/Z)-3-[4-(Pyridin-3-ylmethoxy)benzylidene]indolin-2-one]",56.7

# Tested on: RXF 393
# Assay: NCI-60 antiproliferative screen (SRB)
# Format: cell-based, human
# Settings: Homo sapiens; 10 µM single dose, 48 h; RXF 393 (Renal); read-out: Growth inhibition (%)
row,SMILES,inhibition at 10 µM [%]
1,"O=C1Nc2ccccc2C1=Cc1ccc(OCc2cccnc2)cc1 (mixture of isomers) [Compound 5i, (E/Z)-3-[4-(Pyridin-3-ylmethoxy)benzylidene]indolin-2-one]",24.9

# Tested on: PC-3
# Assay: NCI-60 antiproliferative screen (SRB)
# Format: cell-based, human
# Settings: Homo sapiens; 10 µM single dose, 48 h; PC-3 (Prostate); read-out: Growth inhibition (%)
row,SMILES,inhibition at 10 µM [%]
1,"O=C1Nc2ccccc2C1=Cc1ccc(OCc2cccnc2)cc1 (mixture of isomers) [Compound 5i, (E/Z)-3-[4-(Pyridin-3-ylmethoxy)benzylidene]indolin-2-one]",29.8

# Tested on: DU-145
# Assay: NCI-60 antiproliferative screen (SRB)
# Format: cell-based, human
# Settings: Homo sapiens; 10 µM single dose, 48 h; DU-145 (Prostate); read-out: Growth inhibition (%)
row,SMILES,inhibition at 10 µM [%]
1,"O=C1Nc2ccccc2C1=Cc1ccc(OCc2cccnc2)cc1 (mixture of isomers) [Compound 5i, (E/Z)-3-[4-(Pyridin-3-ylmethoxy)benzylidene]indolin-2-one]",39.8

# Tested on: MCF7
# Assay: NCI-60 antiproliferative screen (SRB)
# Format: cell-based, human
# Settings: Homo sapiens; 10 µM single dose, 48 h; MCF7 (Breast); read-out: Growth inhibition (%)
row,SMILES,inhibition at 10 µM [%]
1,"O=C1Nc2ccccc2C1=Cc1ccc(OCc2cccnc2)cc1 (mixture of isomers) [Compound 5i, (E/Z)-3-[4-(Pyridin-3-ylmethoxy)benzylidene]indolin-2-one]",58

# Tested on: MDA-MB-231
# Assay: NCI-60 antiproliferative screen (SRB)
# Format: cell-based, human
# Settings: Homo sapiens; 10 µM single dose, 48 h; MDA-MB-231 (Breast); read-out: Growth inhibition (%)
row,SMILES,inhibition at 10 µM [%]
1,"O=C1Nc2ccccc2C1=Cc1ccc(OCc2cccnc2)cc1 (mixture of isomers) [Compound 5i, (E/Z)-3-[4-(Pyridin-3-ylmethoxy)benzylidene]indolin-2-one]",35.4

# Tested on: MDA-MB-468
# Assay: NCI-60 antiproliferative screen (SRB)
# Format: cell-based, human
# Settings: Homo sapiens; 10 µM single dose, 48 h; MDA-MB-468 (Breast); read-out: Growth inhibition (%)
row,SMILES,inhibition at 10 µM [%]
1,"O=C1Nc2ccccc2C1=Cc1ccc(OCc2cccnc2)cc1 (mixture of isomers) [Compound 5i, (E/Z)-3-[4-(Pyridin-3-ylmethoxy)benzylidene]indolin-2-one]",51.2

# Tested on: SR
# Assay: NCI-60 antiproliferative screen (SRB)
# Settings: Homo sapiens, 48 h, read-out: Growth inhibition (%)
row,SMILES,inhibition at 10 µM [%]
1,"O=C1Nc2ccccc2C1=Cc1ccc(OCc2cccnc2)cc1 (mixture of isomers) [Compound 5i, (E/Z)-3-[4-(Pyridin-3-ylmethoxy)benzylidene]indolin-2-one]",72

# Tested on: OVCAR-4
# Assay: NCI-60 antiproliferative screen (SRB)
# Settings: Homo sapiens, OVCAR-4, 48 h, read-out: Growth inhibition (%)
row,SMILES,inhibition at 10 µM [%]
1,"O=C1Nc2ccccc2C1=Cc1ccc(OCc2cccnc2)cc1 (mixture of isomers) [Compound 5i, (E/Z)-3-[4-(Pyridin-3-ylmethoxy)benzylidene]indolin-2-one]",37.8
